In patent US7166299B2, “Preparation of aqueous clear solution dosage forms with bile acids” (priority 1998, dated 2007):
Values after ≈ are worked out from the molar mass of the structure shown. Values joined by “and” are separate entries in the source; they are usually repeats but may differ in a detail not shown here. Equal values may be shown once.

How the values were obtained:
[1] = Solution stability test (HPLC) of mixed bile acids with maltodextrin in aqueous solution, Example II; type: physicochemical; settings: Table 2: pH 1, 50° C.
Experimental: (§1) The stability of dosage formulations of the invention were evaluated by measuring the concentration of the relevant bile acid over time in preparations comprising soluble bile acid, a high molecular weight aqueous soluble starch conversion product, and water at various pH and temperature levels. The retention time of each bile acid may be adjusted as needed to permit individual analysis each bile acid present in a complex samples, i.e. a sample having a plurality of bile acids.
(§2) The stability tests were conducted on three different aqueous solution systems: […].
(§3) The stability tests were performed with HPLC and microscope light at various pH conditions under the normal and accelerated conditions. Accelerated conditions for testing pharmaceutical compositions have been described (Remington, The Science and Practice of Pharmacy, 19th ed., p. 640). […] Thus, the formulations of the examples are suitable for preparing a commercial liquid dosage form. […] Some formulations remain stable for over 2 years.
(§4) For the solution stability test for each bile acid, HPLC was used to measure the concentration of the relevant soluble bile acid under the following conditions: the elution solvent of 0.02 M KH2PO4:acetonitrile in a ratio of 55:45, with a pH of 3.01, the flow rate was 0.8 mL/min., the injection volume was 20 μL, wave length for detection was 195 nm. In the tables, the concentration of the indicated bile acid salt for each of the three numbered trials and the average thereof is reported on each line. The percentage indicates the relative concentration of the bile acid salt after incubation for a certain amount of time in comparison with the initial concentration.
Into the resulting clear solution, maltodextrin was added with agitating at room temperature. Purified water was added to adjust the total volume to be 100 mL.

[2] = Solution stability test (HPLC) of single bile acid with maltodextrin in aqueous solution, Example I; type: physicochemical
Experimental: as §1, §2, §3, §4
100 mL of the aqueous solution in which one of the above bile acids is dissolved was prepared. Into the resulting clear solution, maltodextrin, a high molecular weight aqueous soluble starch conversion product, was added with agitation at room temperature. Purified water was added to adjust the total volume to be 100 mL. According to the instant invention and all examples, purified water is deionized, distilled deionized-distilled water, or a grade commonly used for pharmaceutical preparations.

[3] = cited from earlier work
[4] = Hematic levels of UDCA and glyco UDCA after oral administration of 200 mg UDCA aqueous solution to three healthy men (Example VI); type: in vivo, human; settings: male, human, in vivo, po, 200 mg
Experimental: The aqueous solution dosage forms, according to this invention, containing 200 mg of ursodeoxycholic acid (UDCA), were prepared according to the method described in the above-described Example III and were administered to three healthy men having normal body weight after fasting. The hematic levels of UDCA and glyco UDCA were evaluated by means of well known chemical methods. After applying buffered serum to sep-pak column, methanol eluate was derivatized with phenacyl bromide at 80° C. for 45 minutes. These phenacyl bromide derivatives were dissolved in acetonitrile in preparation for HPLC. The experimental results of the absorption measured at certain times after dosage administration include the total absorption expressed as the area under the serum concentration-time curve (AUC: μg/mL×hours), the maximum hematic concentration (Cmax; μg/mL) that has been obtained, and the time (Tmax; hour) in which said maximum concentration has been obtained.
The experimental pharmacokinetic tests of the aqueous solution dosage forms according to this invention carried out on men show substantial improvement in AUC, Cmax and Tmax in comparison with the best results from any dosage forms known presently.
Table 4A and Table 4B show plasma concentration of UDCA and GUDCA measured in 3 men over time following on oral administration of the UDCA and GUDCA containing formulations according to Example VI and comparison of results against results of others employing different pharmaceutical formulations of UDCA.

[5] = Table 1B: pH 10, 50° C., day 20

| Compound | Percentage of day 0 concentration ([1]; day 0) [%] | Percentage of day 0 concentration ([1]; day 4) [%] | concentration by HPLC, Average ([1]; day 4) | concentration by HPLC, trials #1-#3 ([1]; day 4) | Percentage of day 0 concentration ([1]; day 7) [%] | concentration by HPLC, Average ([1]; day 7) | concentration by HPLC, trials #1-#3 ([1]; day 7) | Percentage of day 0 concentration ([1]; day 20) [%] | concentration by HPLC, Average ([1]; day 20) | concentration by HPLC, trials #1-#3 ([1]; day 20) | Percentage of day 0 concentration ([2]; Table 1A: pH 7, 50° C., day 0) [%] | Percentage of day 0 concentration ([2]; Table 1A: pH 7, 50° C., day 4) [%] | Percentage of day 0 concentration ([2]; Table 1A: pH 7, 50° C., day 7) [%] | Percentage of day 0 concentration ([2]; Table 1A: pH 7, 50° C., day 20) [%] | Percentage of day 0 concentration ([2]; Table 1B: pH 10, 50° C., day 0) [%] | Percentage of day 0 concentration ([2]; Table 1B: pH 10, 50° C., day 4) [%] | Percentage of day 0 concentration ([2]; Table 1B: pH 10, 50° C., day 7) [%] | Percentage of day 0 concentration [2, 5] [%] | solubility in the gastric juices and in aqueous hydrochloric acid solution [3] | further results |
| --- | --- | --- | --- | --- | --- | --- | --- | --- | --- | --- | --- | --- | --- | --- | --- | --- | --- | --- | --- | --- |
| C[C@H](CCC(=O)O)[C@H]1CC[C@H]2[C@@H]3[C@H](O)C[C@@H]4C[C@H](O)CC[C@]4(C)[C@H]3C[C@H](O)[C@]12C [CA, cholic acid (3α, 7α, 12α-trihydroxy-5β-cholanic acid)] | 100.0 | 89.8 | 0.457 | 0.453 and 0.466 | 86.9 | 0.443 | 0.434 and 0.426 and 0.468 | 40.6 | 0.207 | 0.207 and 0.206 | 100.0 | 95.4 | 100.8 | 103.0 | 100.0 | 99.1 | 103.6 | 106.4 |  |  |
| C[C@H](CCC(=O)O)[C@H]1CC[C@H]2[C@@H]3[C@H](O)C[C@@H]4C[C@H](O)CC[C@]4(C)[C@H]3CC[C@]12C [CDCA, chenodeoxycholic acid (3α, 7α-dihydroxy-5β-cholanic acid)] | 100.0 | 94.7 | 0.506 | 0.488 and 0.510 and 0.519 | 87.0 | 0.464 | 0.460 and 0.469 and 0.463 | 30.2 | 0.161 | 0.169 and 0.154 | 100.0 | 101.6 | 105.0 | 105.7 | 100.0 | 100.0 | 104.1 | 107.4 | especially insoluble | concentration by HPLC, Average ([1]; day 0): 0.534; concentration by HPLC, trials #1-#3 ([1]; day 0): 0.560 and 0.528 and 0.513; solubility in the gastric pH range [3]: no longer soluble; solubility in water [3]: practically insoluble; concentration by HPLC, Average ([2]; Table 1A: pH 7, 50° C., day 0): 0.547; concentration by HPLC, trials #1-#3 ([2]; Table 1A: pH 7, 50° C., day 0): 0.572 and 0.539 and 0.530; concentration by HPLC, Average ([2]; Table 1A: pH 7, 50° C., day 4): 0.556; concentration by HPLC, trials #1-#3 ([2]; Table 1A: pH 7, 50° C., day 4): 0.540 and 0.552 and 0.576; concentration by HPLC, Average ([2]; Table 1A: pH 7, 50° C., day 7): 0.574; concentration by HPLC, trials #1-#3 ([2]; Table 1A: pH 7, 50° C., day 7): 0.581 and 0.588 and 0.553; concentration by HPLC, Average ([2]; Table 1A: pH 7, 50° C., day 20): 0.578; concentration by HPLC, trials #1-#3 ([2]; Table 1A: pH 7, 50° C., day 20): 0.565 and 0.608 and 0.560; concentration by HPLC, Average ([2]; Table 1B: pH 10, 50° C., day 0): 0.522; concentration by HPLC, trials #1-#3 ([2]; Table 1B: pH 10, 50° C., day 0): 0.541 and 0.532 and 0.495; concentration by HPLC, Average ([2]; Table 1B: pH 10, 50° C., day 4): 0.523; concentration by HPLC, trials #1-#3 ([2]; Table 1B: pH 10, 50° C., day 4): 0.511 and 0.519 and 0.538; concentration by HPLC, Average ([2]; Table 1B: pH 10, 50° C., day 7): 0.544; concentration by HPLC, trials #1-#3 ([2]; Table 1B: pH 10, 50° C., day 7): 0.564 and 0.527 and 0.540; concentration by HPLC, Average [2, 5]: 0.561; concentration by HPLC, trials #1-#3 [2, 5]: 0.556 and 0.569 and 0.558 |
| C[C@H](CCC(=O)O)[C@H]1CC[C@H]2[C@@H]3CC[C@@H]4C[C@H](O)CC[C@]4(C)[C@H]3C[C@H](O)[C@]12C [DCA, deoxycholic acid (3α, 12α-dihydroxy-5β-cholanic acid)] |  |  |  |  |  |  |  |  |  |  |  |  |  |  |  |  |  |  | especially insoluble | solubility ([3]; water): 240 µg/mL (≈ 611 µM) |
| C[C@H](CCC(=O)NCC(=O)O)[C@H]1CC[C@H]2[C@@H]3[C@@H](O)C[C@@H]4C[C@H](O)CC[C@]4(C)[C@H]3CC[C@]12C [GUDCA, glycoursodeoxycholic acid] |  |  |  |  |  |  |  |  |  |  |  |  |  |  |  |  |  |  |  | AUC ([4]; AUC, mean): 4380 ± 1170 ng·h/mL; Cmax ([4]; individual men #1-#3): 1920 ng/mL; Cmax ([4]; mean): 1600 ng/mL; Tmax ([4]; Tmax, mean): 3.5 ± 1.5 h |
| C[C@H](CCC(=O)O)[C@H]1CC[C@H]2[C@@H]3C(=O)C[C@@H]4C[C@H](O)CC[C@]4(C)[C@H]3CC[C@]12C [KLCA, 7-ketolithocholic acid] | 100.0 | 98.3 | 0.861 | 0.870 and 0.866 and 0.847 | 96.4 | 0.845 | 0.848 and 0.844 and 0.843 | 74.9 | 0.656 | 0.661 and 0.651 | 100.0 | 100.2 | 101.4 | 102.1 | 100.0 | 100.5 | 101.5 | 102.2 | especially insoluble | concentration by HPLC, Average ([1]; day 0): 0.876; concentration by HPLC, trials #1-#3 ([1]; day 0): 0.883 and 0.877 and 0.869; concentration by HPLC, Average ([2]; Table 1A: pH 7, 50° C., day 0): 0.880; concentration by HPLC, trials #1-#3 ([2]; Table 1A: pH 7, 50° C., day 0): 0.888 and 0.879 and 0.874; concentration by HPLC, Average ([2]; Table 1A: pH 7, 50° C., day 4): 0.882; concentration by HPLC, trials #1-#3 ([2]; Table 1A: pH 7, 50° C., day 4): 0.871 and 0.887 and 0.888; concentration by HPLC, Average ([2]; Table 1A: pH 7, 50° C., day 7): 0.893; concentration by HPLC, trials #1-#3 ([2]; Table 1A: pH 7, 50° C., day 7): 0.897 and 0.893 and 0.888; concentration by HPLC, Average ([2]; Table 1A: pH 7, 50° C., day 20): 0.899; concentration by HPLC, trials #1-#3 ([2]; Table 1A: pH 7, 50° C., day 20): 0.893 and 0.909 and 0.894; concentration by HPLC, Average ([2]; Table 1B: pH 10, 50° C., day 0): 0.870; concentration by HPLC, trials #1-#3 ([2]; Table 1B: pH 10, 50° C., day 0): 0.879 and 0.874 and 0.857; concentration by HPLC, Average ([2]; Table 1B: pH 10, 50° C., day 4): 0.874; concentration by HPLC, trials #1-#3 ([2]; Table 1B: pH 10, 50° C., day 4): 0.870 and 0.873 and 0.880; concentration by HPLC, Average ([2]; Table 1B: pH 10, 50° C., day 7): 0.884; concentration by HPLC, trials #1-#3 ([2]; Table 1B: pH 10, 50° C., day 7): 0.893 and 0.876 and 0.882; concentration by HPLC, Average [2, 5]: 0.889; concentration by HPLC, trials #1-#3 [2, 5]: 0.887 and 0.893 |
| C[C@H](CCC(=O)NCCS(=O)(=O)O)[C@H]1CC[C@H]2[C@@H]3[C@@H](O)C[C@@H]4C[C@H](O)CC[C@]4(C)[C@H]3CC[C@]12C [Tauroursodeoxycholic acid] |  |  |  |  |  |  |  |  |  |  |  |  |  |  |  |  |  |  | especially insoluble | solubility in hydrochloric acid solution [3]: insoluble |
| C[C@H](CCC(=O)O)[C@H]1CC[C@H]2[C@@H]3C[C@H](O)[C@@H]4C[C@H](O)CC[C@]4(C)[C@H]3CC[C@]12C [hyodeoxycholic acid] |  |  |  |  |  |  |  |  |  |  |  |  |  |  |  |  |  |  | especially insoluble |  |
| C[C@H](CCC(=O)NCCS(=O)(=O)O)[C@H]1CC[C@H]2[C@@H]3[C@H](O)C[C@@H]4C[C@H](O)CC[C@]4(C)[C@H]3CC[C@]12C [taurochenodeoxycholic acid] |  |  |  |  |  |  |  |  |  |  |  |  |  |  |  |  |  |  | especially insoluble | solubility in hydrochloric acid solution [3]: insoluble |
